US20150344457A1, “METHODS OF INHIBITING PRMT5” (EPIZYME, INC., priority 2012, published 2015)

Experiments:
PRMT5/MEP50 = biological target: T1, PRMT5/MEP50 (Homo sapiens, UniProt O14744); test: PRMT5 Biochemical Assay (PRMT5/MEP50 enzyme assay on peptide substrate, 3H-SAM Flashplate); conditions: Table D-2; read-out: Biochemical IC50
T1 construct: Expressed full-length human Flag-PRMT5/6His-MeP50 protein complex was purified; made in house; host or cells: Spodoptera frugiperda (SF9) insect cells, baculovirus (pDEST8)

Z-138 cells = test: Z-138 Proliferation Assay (Cell Titer Glo, 5 days); format: cell-based; conditions: Homo sapiens, Table D-2
Description: Z-138 Proliferation Assay
Z-138 suspension cells were purchased from ATCC (American Type Culture Collection, Manassas, Va.). RPMI/Glutamax medium, penicillin-streptomycin, heat inactivated fetal bovine serum were purchased from Life Technologies, Grand Island, N.Y., USA. V-bottom polypropylene 384-well plates were purchased from Greiner Bio-One, Monroe, N.C., USA. Cell culture 384-well white opaque plates were purchased from Perkin Elmer, Waltham, Mass., USA. Cell-Titer Gb® was purchased from Promega Corporation, Madison, Wis., USA. SpectraMax M5 plate reader was purchased from Molecular Devices LLC, Sunnyvale, Calif., USA.
Z-138 suspension cells were maintained in growth medium (RPMI 1640 supplemented with 10% v/v heat inactivated fetal bovine serum and cultured at 37° C. under 5% CO2. Under assay conditions, cells were incubated in assay medium (RPMI 1640 supplemented with 10% v/v heat inactivated fetal bovine serum and 100 units/mL penicillin-streptomycin) at 37° C. under 5% CO2.
For the assessment of the effect of compounds on the proliferation of the Z-138 cell line, exponentially growing cells were plated in 384-well white opaque plates at a density of 10,000 cells/ml in a final volume of 50 μl of assay medium. A compound source plate was prepared by performing triplicate nine-point 3-fold serial dilutions in DMSO, beginning at 10 mM (final top concentration of compound in the assay was 20 μM and the DMSO was 0.2%). A 100 nL aliquot from the compound stock plate was added to its respective well in the cell plate. […] After addition of compounds, assay plates were incubated for 5 days at 37° C., 5% CO2, relative humidity >90%.
Cell viability was measured by quantitation of ATP present in the cell cultures, adding 35 μl of Cell Titer Glo® reagent to the cell plates. Luminescence was read in the SpectraMax M5 microplate reader. The concentration of compound inhibiting cell viability by 50% was determined using a 4-parametric fit of the normalized dose response curves.

T1 sequence (O14744 with tags, fused parts or gaps): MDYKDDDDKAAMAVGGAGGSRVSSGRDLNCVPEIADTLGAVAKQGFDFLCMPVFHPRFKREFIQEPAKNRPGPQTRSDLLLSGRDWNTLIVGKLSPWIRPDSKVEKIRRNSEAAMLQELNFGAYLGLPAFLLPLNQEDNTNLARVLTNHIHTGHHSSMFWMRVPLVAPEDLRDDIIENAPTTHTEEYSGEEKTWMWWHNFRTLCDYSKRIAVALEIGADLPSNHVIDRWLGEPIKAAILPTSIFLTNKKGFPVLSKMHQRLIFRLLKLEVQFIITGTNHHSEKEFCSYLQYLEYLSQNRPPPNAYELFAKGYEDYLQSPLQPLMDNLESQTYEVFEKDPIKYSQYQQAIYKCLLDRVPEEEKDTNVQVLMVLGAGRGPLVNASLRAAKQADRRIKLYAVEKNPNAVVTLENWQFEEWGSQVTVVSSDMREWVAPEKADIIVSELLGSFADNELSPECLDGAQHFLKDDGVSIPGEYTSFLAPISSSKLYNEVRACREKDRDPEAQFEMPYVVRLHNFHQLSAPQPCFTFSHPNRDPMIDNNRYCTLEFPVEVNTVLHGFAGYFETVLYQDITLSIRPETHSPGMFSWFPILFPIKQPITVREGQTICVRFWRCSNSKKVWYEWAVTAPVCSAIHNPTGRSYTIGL
T1 sequence (Q9BQA1 with tags, fused parts or gaps partner limits assumed): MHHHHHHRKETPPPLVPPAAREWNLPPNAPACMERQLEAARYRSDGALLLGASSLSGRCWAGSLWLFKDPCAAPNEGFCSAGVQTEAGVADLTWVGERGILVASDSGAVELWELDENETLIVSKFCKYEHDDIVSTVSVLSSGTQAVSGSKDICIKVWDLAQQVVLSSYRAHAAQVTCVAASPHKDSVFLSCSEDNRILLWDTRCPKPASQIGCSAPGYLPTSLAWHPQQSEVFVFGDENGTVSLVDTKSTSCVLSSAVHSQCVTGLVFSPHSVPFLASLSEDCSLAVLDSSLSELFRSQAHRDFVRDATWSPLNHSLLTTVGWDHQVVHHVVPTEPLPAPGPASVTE

| SMILES | IC50 (PRMT5/MEP50) | EC50 (Z-138 cells) |
| --- | --- | --- |
| OC(COc1cccc(CNC2CCCC2)c1)CN1CCc2ccccc2C1 (centres unmarked) [Compound D1] | 0.101 to 1 µM | 10 to 40 µM |
| OC(COc1ccc(-n2cncn2)cc1)CN1CCc2ccccc2C1 (centres unmarked) [Compound D9] | 1 to 10 µM | > 20 µM |
| OC(COCc1ccc(OCc2ccccc2)cc1)CN1CCc2ccccc2C1 (centres unmarked) [Compound D12] | 1 to 10 µM | > 20 µM |
| O=S1(=O)CCN(c2ccc(OCC(O)CN3CCc4ccccc4C3)cc2)CC1 (centres unmarked) [Compound D18] | 1 to 10 µM | > 20 µM |
| OC(COC1CCN(Cc2ccccc2)CC1)CN1CCc2ccccc2C1 (centres unmarked) [Compound D21] | 1 to 10 µM | > 40 µM |
| O[C@H](COc1cccc(CNC2CCCC2)c1)CN1CCc2ccccc2C1 [Compound D22] | – | 10 to 40 µM |
| O[C@@H](COc1cccc(CNC2CCCC2)c1)CN1CCc2ccccc2C1 [Compound D23] | – | 10 to 40 µM |
| CN(Cc1ccc(OCC(O)CN2CCc3ccccc3C2)cc1)C1CCCC1 (centres unmarked) [Compound D24] | 1 to 10 µM | > 40 µM |
| OC(COc1ccc(C2CCNCC2)cc1)CN1CCc2ccccc2C1 (centres unmarked) [Compound D25] | 1 to 10 µM | 10 to 40 µM |
| CC(C)n1nccc1-c1ccc(OCC(O)CN2CCc3ccccc3C2)cc1 (centres unmarked) [Compound D26] | 10 to 40 µM | > 40 µM |
| CC(C)n1ccc(-c2ccc(OCC(O)CN3CCc4ccccc4C3)cc2)n1 (centres unmarked) [Compound D27] | 1 to 10 µM | > 40 µM |
| Cc1nn(-c2ccccc2)c(C)c1COCC(O)CN1CCc2ccccc2C1 (centres unmarked) [Compound D28] | 1 to 10 µM | > 40 µM |
| COc1cccc2c1CN(CC(O)COc1cccc(CNC3CCCC3)c1)CC2 (centres unmarked) [Compound D29] | 10 to 40 µM | 10 to 40 µM |
| COc1cc2c(cc1OC)CN(CC(O)COc1cccc(CNC3CCCC3)c1)CC2 (centres unmarked) [Compound D30] | > 40 µM | 10 to 40 µM |
| CC(C(O)COc1cccc(CNC2CCCC2)c1)N1CCc2ccccc2C1 (centres unmarked) [Compound D33] | 1 to 10 µM | > 40 µM |
| O=C(c1ccc(Cn2ccc(-c3ccc(OCC(O)CN4CCc5ccccc5C4)cc3)n2)cc1)N1CCCC1 (centres unmarked) [Compound D34] | 1 to 10 µM | 10 to 40 µM |
| CCC1c2ccccc2CCN1CC(O)COc1cccc(-c2ccc3ncn(C)c3c2)c1 (centres unmarked) [Compound D179] | 0.101 to 1 µM | > 20 µM |
| OC(COCc1c(Cl)cccc1Cl)CN1CCc2ccccc2C1 (centres unmarked) [Compound D280] | 1 to 10 µM | 10 to 40 µM |
| OC(COc1ccc2c(c1)OCO2)CN1CCc2ccccc2C1 (centres unmarked) [Compound D285] | 1 to 10 µM | > 20 µM |
| CCCCNCc1cccc(COCC(O)CN2CCc3ccccc3C2)c1 (centres unmarked) [Compound D286] | 0.101 to 1 µM | > 20 µM |
| COc1cccc(COCC(O)CN2CCc3ccccc3C2)c1 (centres unmarked) [Compound D288] | 1 to 10 µM | > 40 µM |

| SMILES | IC50 (PRMT5/MEP50) | EC50 (Z-138 cells) |
| --- | --- | --- |
| CN1CCCCC1COCC(O)CN1CCc2ccccc2C1 (centres unmarked) [Compound D289] | > 40 µM | > 40 µM |
| CC(C)(C)OC(=O)N1CC(OCC(O)CN2CCc3ccccc3C2)C1 (centres unmarked) [Compound D290] | 1 to 10 µM | > 40 µM |
| CC(C)(C)OC(=O)N1CCCC(OCC(O)CN2CCc3ccccc3C2)C1 (centres unmarked) [Compound D291] | 1 to 10 µM | > 40 µM |
| CC(C)(C)OC(=O)N1CCC(OCC(O)CN2CCc3ccccc3C2)CC1 (centres unmarked) [Compound D292] | 1 to 10 µM | > 40 µM |
| CN1CCC(OCC(O)CN2CCc3ccccc3C2)CC1 (centres unmarked) [Compound D293] | > 40 µM | > 40 µM |
| OC(COCC1CCCCC1)CN1CCc2ccccc2C1 (centres unmarked) [Compound D294] | 1 to 10 µM | > 40 µM |
| CCn1ccnc1COCC(O)CN1CCc2ccccc2C1 (centres unmarked) [Compound D295] | > 40 µM | > 40 µM |
| OC(COC1CCCNC1)CN1CCc2ccccc2C1 (centres unmarked) [Compound D297] | > 40 µM | > 40 µM |
| OC(COC1CCNCC1)CN1CCc2ccccc2C1 (centres unmarked) [Compound D298] | > 40 µM | > 40 µM |
| CC(OCC(O)CN1CCc2ccccc2C1)c1cccnc1 (centres unmarked) [Compound D299] | 10 to 40 µM | > 40 µM |
| OC(COCC1COc2ccccc2O1)CN1CCc2ccccc2C1 (centres unmarked) [Compound D300] | 0.101 to 1 µM | > 40 µM |
| OC(COC1Cc2ccccc2C1)CN1CCc2ccccc2C1 (centres unmarked) [Compound D301] | 1 to 10 µM | > 40 µM |
| OC(COCC1CC1)CN1CCc2ccccc2C1 (centres unmarked) [Compound D303] | 1 to 10 µM | > 40 µM |
| OC(COCC1CCCCO1)CN1CCc2ccccc2C1 (centres unmarked) [Compound D304] | > 40 µM | > 40 µM |
| OC(COCC1CCCO1)CN1CCc2ccccc2C1 (centres unmarked) [Compound D305] | 10 to 40 µM | > 40 µM |
| OC(COC1CCNC1)CN1CCc2ccccc2C1 (centres unmarked) [Compound D306] | > 40 µM | > 40 µM |
| CN1CCC(OCC(O)CN2CCc3ccccc3C2)C1 (centres unmarked) [Compound D307] | > 40 µM | > 40 µM |
| OC(COCc1ccccc1)CN1CCc2ccccc2C1 (centres unmarked) [Compound D308] | 10 to 40 µM | > 40 µM |
| OC(COC1CCCCCC1)CN1CCc2ccccc2C1 (centres unmarked) [Compound D309] | 1 to 10 µM | > 40 µM |
| OC(COC1CCOCC1)CN1CCc2ccccc2C1 (centres unmarked) [Compound D310] | 10 to 40 µM | > 40 µM |
